Data on 53 compounds can be found in PubChem BioAssay AID977628 (Broad Institute, 2014).

Inconclusive results are not listed. Activity calls are given as the source filed them.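 Rule for the calls: active = compound lowering the normal-ribosome reporter at least twice as much as the humanized-ribosome reporter, growth loss under a set limit; inconclusive = no clear call, values can overlap the other calls; inactive = the rest.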

Test [1] relates to E. coli mixed WT/h24 culture total growth, OD600, 24 h. Briefly: E. coli growth inhibition, wild-type GFP versus h24 humanized RFP strain, dose response, h24 mutant RFP vs wild-type GFP, cherry-pick (AID 977628).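 Note: wild-type GFP and h24 humanized RFP strains co-cultured 1 to 1 per well.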
Test [2] concerns E. coli WT GFP strain growth, fluorescence, 24 h. The test is described as above.

On to `CCOc1ccc(S(=O)(=O)Nc2ccc(S(=O)(=O)N3CCCC3)cc2)cc1`, for which the AC50 in test [1] is 40.8 µM; in test [2], > 100 µM (inactive). For the compound `CC(C)Oc1ccc(C(CC(=O)O)NC(=O)C(Sc2ccccc2)c2ccccc2)cc1` (stereo not given), the AC50 in test [1] was more than 100 µM; in test [2] it was > 100 µM (inactive).

`CN(CCOc1ccccc1)C(=O)c1ccc(OC2CCN(C(=O)C3CC3)CC2)cc1`: the AC50 in test [1] was more than 100 µM; in test [2], > 100 µM (inactive). Regarding `CC(=O)Nc1ccc(S(=O)(=O)Nc2cccc(-c3nc4cc(C)ccc4o3)c2)cc1`, the concentration at half-maximal activity (AC50) in test [1] is more than 100 µM; in test [2], > 100 µM (inactive). With `Cc1nc2ccc(Br)cc2c(=O)n1Cc1cccs1`, the AC50 was 49.7 µM in test [1] and > 100 µM (inactive) in test [2]. Turning to `O=C(CSCc1c(Cl)cccc1Cl)Nc1cccnc1`, the AC50 is more than 100 µM in test [1] and > 100 µM (inactive) in test [2]. Turning to `COc1ccc(C(=O)Cn2nnc(-c3ccccc3F)n2)cc1`, the AC50 in test [1] is 48.8 µM; in test [2], > 100 µM (inactive). In the case of `COc1ccc(OC)c(-c2nnc3n2N=C(c2ccc(OC)c(OC4CCOC4)c2)CS3)c1` (stereo not given), the AC50 in test [1] was more than 100 µM; in test [2] it was > 100 µM (inactive).

For the compound `Cc1ccccc1S(=O)(=O)N1C[C@H]2CON(C)[C@H]2C[C@H]1c1cccc(-c2ccc(C#N)cc2)c1`, the AC50 in test [1] is more than 100 µM; in test [2], > 100 µM (inactive).

As to `CC1(C(=O)NS(=O)(=O)c2cccc(Cl)c2)CCN1C(=O)C1(c2ccc(Cl)cc2)CCC1` (stereo not given), the AC50 in test [1] was more than 100 µM; in test [2] it was > 100 µM (inactive). For the compound `O=[N+]([O-])c1ccccc1Oc1ccc(Cl)c2cccnc12`, the AC50 in test [1] was more than 100 µM; in test [2] it was > 100 µM (inactive). Turning to `COc1cc2c(cc1OC)CN(c1ccc([N+](=O)[O-])c(C(F)(F)F)c1)CC2`, the AC50 was more than 100 µM in test [1] and > 100 µM (inactive) in test [2]. `Nc1[nH]c(C(=O)c2ccccc2)c(-c2ccc(Cl)cc2)c1C(=O)NCCc1c[nH]c2ccccc12`: the AC50 was more than 100 µM in test [1] and > 100 µM (inactive) in test [2]. Regarding `COc1cc2c(cc1NC(=O)C(C)Sc1cccc[n+]1[O-])oc1ccccc12` (stereo not given), the AC50 is more than 100 µM in test [1] and > 100 µM (inactive) in test [2]. Taken in the same sequence, the figures for `CCN(CC(=O)Nc1ccccc1OC)CC(=O)Nc1c(Cl)ccc(C)c1Cl` were more than 100 µM and > 100 µM (inactive).

Consider `C(=C(c1ccccc1)c1ccccc1)c1ccccn1`, for which the results for the AC50 in test [1] and in test [2] were more than 100 µM and > 100 µM (inactive), respectively.

As to `CCCc1nc2oc3c(NCCCN(C)C)ncnc3c2c2c1CCCC2`, the AC50 was more than 100 µM in test [1] and > 100 µM (inactive) in test [2]. On to `COc1ccc(-n2ccnc2SCC(=O)NCc2ccccc2)c(OC)c1`, for which the AC50 is more than 100 µM in test [1] and > 100 µM (inactive) in test [2]. As for `Cc1nn(-c2ccccc2)c(C)c1NC(=O)COc1ccc2ccccc2c1`, the figures for the AC50 in test [1] and in test [2] were 42.8 µM and > 100 µM (inactive), respectively. With `O=C(CN(c1ccc(F)cc1)S(=O)(=O)c1ccccc1)Nc1ccccc1C(=O)O`, the half-maximal activity concentration (AC50) in test [1] is more than 100 µM; in test [2] it was > 100 µM (inactive). Take `CCn1c(-c2ccccc2Cl)nn(CC(=O)Nc2ccccc2OC)c1=S`: the half-maximal activity concentration (AC50) in test [1] is more than 100 µM; in test [2] it was > 100 µM (inactive). As to `CS(=O)(=O)N(CC(=O)N1CCc2ccccc2C1)c1ccc(Br)cc1`, the AC50 is 47 µM in test [1] and > 100 µM (inactive) in test [2]. As to `COc1ccc(NS(=O)(=O)c2cccc3ccccc23)cc1`, the AC50 in test [1] is 40.6 µM; in test [2], > 100 µM (inactive). On to `COc1cc(NC(=O)CSCc2ccc(Cl)cc2Cl)c(C(=O)O)cc1OC`, for which the AC50 in test [1] was more than 100 µM; in test [2], > 100 µM (inactive).

For `Cc1ccccc1COc1ccc(-c2nn[nH]n2)cc1`, the AC50 in test [1] is 39.4 µM; in test [2] it was > 100 µM (inactive). Taken in the same sequence, the figures for `COc1ccc(NC(=O)CCC(=O)c2cccs2)cc1S(=O)(=O)Nc1ccc(Cl)cc1` were more than 100 µM and > 100 µM (inactive). In the case of `COc1ccc(C)cc1NC(=O)c1nn(C)cc1Br`, the values for the AC50 in test [1] and in test [2] were more than 100 µM and > 100 µM (inactive), respectively. In the case of `Cc1ccc(N(CC(O)Cn2nc(C)cc2C)S(=O)(=O)c2ccc3ccccc3c2)cc1` (stereo not given), the figures for the AC50 in test [1] and in test [2] were 49.4 µM and > 100 µM (inactive), respectively.

On to `CCOc1ccc(NC(=O)CCc2nnc3ccc(N4CCC(C)CC4)nn23)cc1`, for which the concentration at half-maximal activity (AC50) in test [1] is more than 100 µM; in test [2] it was > 100 µM (inactive). `O=C(COn1nnc2ccc(C(F)(F)F)cc21)Nc1c(Cl)cccc1Cl`: the AC50 in test [1] is more than 100 µM; in test [2] it was > 100 µM (inactive). As to `Cc1onc(-c2ccccc2Cl)c1C(=O)N[C@@H](C)c1ccccc1`, the AC50 was more than 100 µM in test [1] and > 100 µM (inactive) in test [2].

On to `Cc1ccc(C(=O)Nc2cccc(-c3cn4ccccc4n3)c2)cc1`, for which the figures for the AC50 in test [1] and in test [2] were 51.5 µM and > 100 µM (inactive), respectively.

The compound `CN1CCN(CC(=O)c2cc(C(C)(C)C)c(O)c(C(C)(C)C)c2)CC1` showed an AC50 in test [1] of more than 100 µM. As for `CC(C)n1nnnc1C1c2ccccc2C(=O)N1CCOc1ccccc1` (stereo not given), the AC50 in test [1] was more than 100 µM. As for `COc1ccc(CNC(=O)c2nc(S(=O)(=O)Cc3ccccc3)ncc2Cl)cc1`, the AC50 in test [1] was more than 100 µM.

`COc1cc2ccccc2cc1C(=O)NCC(c1cccs1)N(C)C` (stereo not given) came in with an AC50 in test [1] of more than 100 µM.

Compound `O=C(COC(=O)CCC(=O)c1ccc(F)cc1)Nc1cccc(S(=O)(=O)N2CCCC2)c1` registered an AC50 in test [1] of more than 100 µM.

In turn, `COc1cccc(OC)c1CNC(=O)CCSCc1ccccc1F` displayed an AC50 in test [1] of more than 100 µM. In turn, `CCN(CC)c1nc(Oc2ccc(C(=O)OC)cc2)nc(N2CCOCC2)n1` yielded an AC50 in test [1] of more than 100 µM. In test [1], `CC(NC(=O)C12CC3CC(C)(CC(C)(C3)C1)C2)c1ccncc1` (stereo not given) displayed an AC50 of more than 100 µM. Turning to `O=C(c1sc2ccccc2c1Cl)N1CCC2(CC1)OCCO2`, the AC50 in test [1] is more than 100 µM. `Cc1ccc(NC(=O)c2ccc([N+](=O)[O-])s2)cc1S(=O)(=O)N1CCOCC1` showed an AC50 in test [1] of more than 100 µM. On the same count and under the same terms, the result for `COc1cc(OC)c(NS(=O)(=O)c2cccc(C(=O)OCC(=O)NCC3CCCO3)c2)cc1Cl` (stereo not given) reads more than 100 µM. The same measure, in the same setting: the result for `O=C(Nc1cccc(S(=O)(=O)c2cccc(NC(=O)C3CC3)c2)c1)C1CC1` reads 46.7 µM. Compound `O=S(=O)(NOCc1ccc(Cl)cc1)c1ccc(Cl)cc1` registered an AC50 in test [1] of more than 100 µM. On the same count and under the same terms, the value for `COc1ccc(/C=C/c2nc3ccccc3n2Cc2ccccc2OC)cc1` was more than 100 µM.

As for `Nc1ccc2nc(-c3ccc(Cl)cc3)[nH]c2c1`, the AC50 in test [1] is more than 100 µM. Turning to `O=C(C[n+]1ccn(-c2ccccc2)c1)c1ccc([N+](=O)[O-])cc1`, the AC50 in test [1] was more than 100 µM. For the compound `Brc1ccccc1Cn1c(-c2cncs2)nc2ccccc21`, in test [1], the AC50 was more than 100 µM. In turn, `CCCn1c(C(C)Nc2nc(-c3ccc(C)cc3)cs2)nc2ccccc21` (stereo not given) displayed an AC50 in test [1] of more than 100 µM.

In the case of `CCN(CC)CC(=O)Nc1sc2c(c1C(=O)c1ccccc1OC)CCC2`, the AC50 in test [1] is more than 100 µM. As to `Nc1ccccc1Sc1c[nH]c2ccccc12`, the AC50 in test [1] is more than 100 µM. In test [1], `CNC(=O)c1ccsc1NC(=O)c1ccc(S(=O)(=O)N2CCc3ccccc32)cc1` showed an AC50 of more than 100 µM.

As usually defined, the AC50 is the midpoint of the concentration-response curve, whichever way the signal moves.
